Literature values, collected in the CATMoS acute toxicity set (Mansouri et al. 2021).

Assay: rat acute oral toxicity
Details: in vivo

**Q.** With `C=CCC1(CCSCCCC)C(=O)N=C(S)NC1=O` (stereo unspecified) as the molecule, how does the LD50 read?
**A.** The LD50 was 1450 mg/kg.

**Q.** Which LD50 does the source give for `C1CNCCN1` here?
**A.** Its LD50 is 4900 mg/kg.

**Q.** With `CCc1cccc(CC)c1N(CC(=O)O)C(=O)CCl` as the molecule, how does the LD50 read?
**A.** Its LD50 is 2300 mg/kg.

**Q.** For `Cc1ccc(S(=O)(=O)Oc2cc(S(=O)(=O)O)cc3cc(S(=O)(=O)O)cc(N)c23)cc1`, which LD50 is on record?
**A.** Its LD50 is 11500 mg/kg.

**Q.** For `CCCCOC(OCCCC)C(OCCCC)OCCCC`, which LD50 is on record?
**A.** Its LD50 is 8900 mg/kg.

**Q.** Which LD50 does the source give for `CCN(N=O)C(C)(C)C` here?
**A.** Its LD50 is 1600 mg/kg.

**Q.** For `COP(=O)(OC)Oc1ccc([N+](=O)[O-])c(Cl)c1`, which LD50 is on record?
**A.** Its LD50 is 10 mg/kg.

**Q.** Which LD50 does the source give for `CCCN(CCC)C(=O)C(CCC(=O)N1CCN(CCOC(=O)Cc2c(C)n(C(=O)c3ccc(Cl)cc3)c3ccc(OC)cc23)CC1)NC(=O)c1ccccc1` (stereo unspecified) here?
**A.** The LD50 was 315 mg/kg.

**Q.** With `COc1ccc(NC(=O)N(C)C)cc1Cl` as the molecule, how does the LD50 read?
**A.** The LD50 was 1600 mg/kg.

**Q.** For `OC(Nc1nccs1)C(Cl)(Cl)Cl` (stereo unspecified), which LD50 is on record?
**A.** Its LD50 is 2500 mg/kg.

**Q.** With `CCOC(=O)Nc1ccc2c(c1)N(C(=O)CCN1CCOCC1)c1ccccc1S2` as the molecule, how does the LD50 read?
**A.** Its LD50 is 1000 mg/kg.

**Q.** Which LD50 does the source give for `O=C(CCl)OCCOCCO` here?
**A.** Its LD50 is 770 mg/kg.

**Q.** Which LD50 does the source give for `Cc1ccc2ccccc2c1` here?
**A.** The LD50 was 1630 mg/kg.

**Q.** For `S=C=Nc1ccc(Br)cc1`, which LD50 is on record?
**A.** The LD50 was 400 mg/kg.

**Q.** For `CCCCCCCCCCCC(=O)NP(=O)(OC)SC` (stereo unspecified), which LD50 is on record?
**A.** Its LD50 is 100 mg/kg.

**Q.** Which LD50 does the source give for `O=C(Cc1ccc(-c2ccccc2)cc1)Nc1ccccn1` here?
**A.** Its LD50 is 1860 mg/kg.

**Q.** With `CCC1(C(C)CC(C)C)C(=O)NC(=O)NC1=O` (stereo unspecified) as the molecule, how does the LD50 read?
**A.** Its LD50 is 75 mg/kg.

**Q.** With `COc1ccc2c(c1)c(CC(=O)OCOC(=O)c1cccc(C)c1)c(C)n2C(=O)c1ccc(Cl)cc1` as the molecule, how does the LD50 read?
**A.** Its LD50 is 106 mg/kg.

**Q.** Which LD50 does the source give for `CC(C)CCI` here?
**A.** Its LD50 is 1420 mg/kg.

**Q.** For `Cc1occc1C(=O)Nc1ccccc1`, which LD50 is on record?
**A.** Its LD50 is 12900 mg/kg.

**Q.** Which LD50 does the source give for `CCCCCCCc1ccc(O)cc1O` here?
**A.** The LD50 was 1300 mg/kg.

**Q.** Which LD50 does the source give for `C=CC(=O)N(C)C` here?
**A.** Its LD50 is 316 mg/kg.

**Q.** With `CC(=O)CCc1ccccc1` as the molecule, how does the LD50 read?
**A.** The LD50 was 3200 mg/kg.

**Q.** For `CN(Sc1ccc([N+](=O)[O-])cc1)C(=O)Oc1cccc2c1OC(C)(C)C2`, which LD50 is on record?
**A.** Its LD50 is 25 mg/kg.

**Q.** For `COc1cc(C2NC(=O)CCS2)cc(OC)c1OC` (stereo unspecified), which LD50 is on record?
**A.** Its LD50 is 5400 mg/kg.

**Q.** With `C=CC(=O)OCC(CC)CC` as the molecule, how does the LD50 read?
**A.** Its LD50 is 6490 mg/kg.

**Q.** For `C=CC[C@@H]1C=C(C)C[C@H](C)C[C@H](OC)[C@H]2O[C@@](O)(C(=O)C(=O)N3CCCC[C@H]3C(=O)O[C@H](C(C)=C[C@@H]3CC[C@@H](O)[C@H](OC)C3)[C@H](C)[C@@H](O)CC1=O)[C@H](C)C[C@@H]2OC`, which LD50 is on record?
**A.** Its LD50 is 134 mg/kg.

**Q.** With `Cc1cc(Cl)ccc1O` as the molecule, how does the LD50 read?
**A.** The LD50 was 1190 mg/kg.

**Q.** Which LD50 does the source give for `CC(C)c1ccc2ccccc2c1C(C)C` here?
**A.** The LD50 was 15200 mg/kg.

**Q.** For `O=C(O)CN(CCO)CCN(CC(=O)O)CC(=O)O`, which LD50 is on record?
**A.** The LD50 was 10000 mg/kg.

**Q.** For `O=C(O)CCC1(CCC(=O)O)c2ccccc2-c2ccccc21`, which LD50 is on record?
**A.** The LD50 was 2140 mg/kg.

**Q.** For `CCOP(=S)(OCC)Sc1ccc(C)cc1`, which LD50 is on record?
**A.** The LD50 was 316 mg/kg.

**Q.** With `CCC[N+](=O)[O-]` as the molecule, how does the LD50 read?
**A.** Its LD50 is 455 mg/kg.

**Q.** Which LD50 does the source give for `CC(=O)CC(=O)Nc1ccc(C)cc1C` here?
**A.** Its LD50 is 3000 mg/kg.

**Q.** With `CNC(=O)Oc1cc(C)cc(C(C)C)c1` as the molecule, how does the LD50 read?
**A.** Its LD50 is 35 mg/kg.

**Q.** Which LD50 does the source give for `CCCCCCCOCCO` here?
**A.** The LD50 was 2280 mg/kg.

**Q.** With `CCCCC(CC)COC(CBr)c1ccccc1` (stereo unspecified) as the molecule, how does the LD50 read?
**A.** Its LD50 is 250 mg/kg.

**Q.** For `C[C@H](CN1CCCC1)C(=O)c1ccc(C(F)(F)F)cc1`, which LD50 is on record?
**A.** The LD50 was 525 mg/kg.

**Q.** With `CC(C)CCCC(C)(C)O` as the molecule, how does the LD50 read?
**A.** Its LD50 is 6800 mg/kg.

**Q.** Which LD50 does the source give for `C=CCOC1=NS(=O)(=O)c2ccccc21` here?
**A.** Its LD50 is 2030 mg/kg.

**Q.** With `CCN(CCCOS(C)(=O)=O)CCCOS(C)(=O)=O` as the molecule, how does the LD50 read?
**A.** The LD50 was 375 mg/kg.

**Q.** For `O=[N+]([O-])c1cc([N+](=O)[O-])c(Cl)c(S(=O)(=O)O)c1`, which LD50 is on record?
**A.** Its LD50 is 1460 mg/kg.

**Q.** With `CCCCCCCC[N+](CC)(CC)CCOC(=O)C(C1CCCC1)C1CCCC1` as the molecule, how does the LD50 read?
**A.** Its LD50 is 1200 mg/kg.

**Q.** With `COc1ccc(CCNCC(O)COc2cccc(C)c2)cc1OC` (stereo unspecified) as the molecule, how does the LD50 read?
**A.** The LD50 was 460 mg/kg.

**Q.** For `Nc1ccc(S(=O)(=O)O)c2cccc(S(=O)(=O)O)c12`, which LD50 is on record?
**A.** The LD50 was 56000 mg/kg.

**Q.** For `c1ccc2c(c1)CCN1CCN=C1C2`, which LD50 is on record?
**A.** Its LD50 is 60 mg/kg.

**Q.** With `CC1CNCC(C)O1` (stereo unspecified) as the molecule, how does the LD50 read?
**A.** The LD50 was 2830 mg/kg.

**Q.** With `CN1CCN(C2=Cc3ccccc3Sc3ccc(Cl)cc32)CC1` as the molecule, how does the LD50 read?
**A.** Its LD50 is 115 mg/kg.

**Q.** With `CCCCCCC(C)P(=O)(C(C)CCCCCC)C(C)CCCCCC` (stereo unspecified) as the molecule, how does the LD50 read?
**A.** Its LD50 is 7270 mg/kg.

**Q.** For `CN(C)CCCn1c2ccccc2c(=O)c2c([N+](=O)[O-])cccc21`, which LD50 is on record?
**A.** Its LD50 is 53.3 mg/kg.

**Q.** For `COC(=O)OC`, which LD50 is on record?
**A.** Its LD50 is 13000 mg/kg.

**Q.** For `Cc1cc(Cl)ccc1OC(C)C(=O)N(C)C` (stereo unspecified), which LD50 is on record?
**A.** The LD50 was 800 mg/kg.

**Q.** Which LD50 does the source give for `COC(C)CCOC(C)=O` (stereo unspecified) here?
**A.** The LD50 was 4210 mg/kg.

**Q.** For `O=S(=O)(O)C(F)(F)C(F)(F)C(F)(F)C(F)(F)F`, which LD50 is on record?
**A.** The LD50 was 430 mg/kg.

**Q.** Which LD50 does the source give for `O=C(CCCCC(=O)OC1CCCCC1)OC1CCCCC1` here?
**A.** The LD50 was 16000 mg/kg.

**Q.** For `CSc1ncnc2c1ncn2C1OC(CO)C(O)C1O` (stereo unspecified), which LD50 is on record?
**A.** The LD50 was 214 mg/kg.

**Q.** With `CCNc1nc(Cl)nc(NCC)n1` as the molecule, how does the LD50 read?
**A.** The LD50 was 971 mg/kg.

**Q.** Which LD50 does the source give for `Nc1ncnc2c1ncn2[C@]1(CO)O[C@H](CO)[C@@H](O)[C@H]1O` here?
**A.** Its LD50 is 10000 mg/kg.

**Q.** Which LD50 does the source give for `O=C1c2ccccc2S(=O)(=O)N1CCCCNC[C@H]1CCc2ccccc2O1` here?
**A.** The LD50 was 324 mg/kg.

**Q.** Which LD50 does the source give for `CN1CCC(C=C2c3ccccc3CCc3ccccc32)C1` (stereo unspecified) here?
**A.** The LD50 was 303 mg/kg.

**Q.** With `CCN(CC)C(=O)CCC(C)=O` as the molecule, how does the LD50 read?
**A.** Its LD50 is 4760 mg/kg.

**Q.** With `CCOP(=S)(OCC)OC(=CCl)c1ccc(Cl)cc1Cl` as the molecule, how does the LD50 read?
**A.** Its LD50 is 10 mg/kg.

**Q.** With `CC1CO1` (stereo unspecified) as the molecule, how does the LD50 read?
**A.** The LD50 was 380 mg/kg.

**Q.** With `CCCCC1C(=O)N(c2ccccc2)N(c2ccc(O)cc2)C1=O` (stereo unspecified) as the molecule, how does the LD50 read?
**A.** The LD50 was 329 mg/kg.

**Q.** For `CN=C(O)O/N=C1\SCOC1C(C)C` (stereo unspecified), which LD50 is on record?
**A.** The LD50 was 16 mg/kg.

**Q.** For `CC(C)(C)c1cc([N+](=O)[O-])cc([N+](=O)[O-])c1O`, which LD50 is on record?
**A.** Its LD50 is 26 mg/kg.

**Q.** With `CCCCN1C(=O)c2ccc([N+](=O)[O-])cc2C1=O` as the molecule, how does the LD50 read?
**A.** Its LD50 is 1340 mg/kg.

**Q.** For `CCOC=C(C(=O)OCC)C(=O)OCC`, which LD50 is on record?
**A.** The LD50 was 925 mg/kg.

**Q.** With `CC(=S)Nc1ccccc1` as the molecule, how does the LD50 read?
**A.** Its LD50 is 2640 mg/kg.

**Q.** For `CCOP(=O)(OCC)Oc1ccc([N+](=O)[O-])c(Cl)c1`, which LD50 is on record?
**A.** Its LD50 is 5 mg/kg.

**Q.** With `CC1CCC(=O)CC1` as the molecule, how does the LD50 read?
**A.** Its LD50 is 800 mg/kg.

**Q.** Which LD50 does the source give for `CSCc1cnccn1` here?
**A.** The LD50 was 2150 mg/kg.

**Q.** For `CNC(=O)Nc1nc2ccccc2s1`, which LD50 is on record?
**A.** The LD50 was 1280 mg/kg.

**Q.** For `CNC(=O)Oc1ccccc1OC(CCl)OC` (stereo unspecified), which LD50 is on record?
**A.** Its LD50 is 35.4 mg/kg.

**Q.** With `Cc1cccc(OCC(O)CNC(C)(C)C)c1C` (stereo unspecified) as the molecule, how does the LD50 read?
**A.** Its LD50 is 575 mg/kg.

**Q.** Which LD50 does the source give for `NS(=O)(=O)CCNC(=O)N(CCCl)N=O` here?
**A.** Its LD50 is 40 mg/kg.
